Source: patent publication US9150579B2, “Selective PI3K delta inhibitors” (Rhizen Pharmaceuticals SA, priority 2012, dated 2015)
pEC50, pIC50: −log10 of the molar value. Entries after “also recorded” stand apart in the source; their conditions may differ.

Key:
[1] = system: leukemic cells; assay: Assay 5: Apoptosis in leukemic cell lines (in situ Caspase 3 kit); assay type: cell-based; conditions: 24 hrs
Method: Apoptosis in leukemic cells was determined using an in situ Caspase 3 kit (Millipore, US) as outlined below: • Seed leukemic cells at a density of 1×10^6 cells/well in a 6 well plate • Add test compound/DMSO at desired concentrations • Incubate the plate for 24 hrs at 37° C. in 5% CO2 incubator • Collect cells in a 2 ml centrifuge tube • Add 1.6 μL of freshly prepared 5× FLICA reagent and mix cells by slightly flicking the tubes • Incubate tubes for 1 hour at 37° C. under 5% CO2 • Add 2 ml of 1× wash buffer to each tube and mix • Centrifuge cells at <400×g for 5 minutes at room temperature. • Carefully remove and discard supernatant, and gently vortex cell pellet to disrupt any cell-to-cell clumping. • Resuspend cell pellet in 300 ul of 1× wash buffer • Place 100 μL of each cell suspension into each of two wells of a black microtiter plate. Avoid creation of bubbles. • Read […] of each microwell using an excitation wavelength of 490 nm and an emission wavelength of 520 nm • Percent increase in caspase-3 activity manifested by an increase in fluorescence compared to the control blank is to be calculated.

[2] = system: Primary CLL cells; assay: Assay 8: Screening for anticancer activity in human CLL cells; assay type: cell-based
Method: After 72 hours of incubation, CLL cells were evaluated for cytotoxicity using the colorimetric MTS reagent. Phosphorylated Akt (S473) was measured by flow cytometry after one hour of incubation of test compound and ten minutes of incubation with anti-IgM or anti-IgD. Akt phosphorylation was quantified by median fluorescent intensity (MFI). Of the seven CLL patient samples used for experiments, five had mutated IGHV, five had 13 q deletion or normal cytogenetics determined by fluorescent in situ hybridization, three were ZAP-70 negative, and seven were CD38 negative. IgM expression ranged between 13% and 90%, whereas IgD expression was uniformly elevated.

[3] = Metabolic stability in human liver microsomes; assay type: in vitro ADME; conditions: 1 μM test item, 60 minutes, NADPH
Method: (§1) Metabolic stability studies were conducted using mouse, rat, and human liver microsomes. The protocol for the studies with mouse, rat, and human liver microsomes (all from BD Gentest, USA) is provided below. In brief, 0.4 mg protein was preincubated with 2 mM NADPH (cofactor) in phosphate buffer (pH˜7.4) for 15 min at 37° C. and then added with 1 μM test item and incubated further for 60 minutes in triplicate. The reaction mixture was terminated with methanol containing an internal standard and centrifuged further to analyze the test item remaining in the supernatant by LC-MS/MS. The percent parent compound remaining was calculated in comparison with similar samples terminated at 0 minutes.

[4] = system: AKT phosphorylation in THP-1, HL-60, MOLT-4, RPMI-8226, or DLBCL cells; assay: Assay 3: Inhibition of AKT phosphorylation in leukemic cell lines; assay type: cell-based; conditions: 48 hours, Western Blotting
Method: Inhibition of AKT phosphorylation in leukemic cell lines: THP-1, HL-60, MOLT-4, RPMI-8226, or DLBCL cells were incubated with desired concentrations of compound for 48 hours. Cells were lysed and pAKT was determined by Western Blotting. Bands were quantified using ImageJ and normalized to actin.

[5] = system: Human Multiple Myeloma Cells; assay: Assay 6a: Screening for anticancer activity in human multiple myeloma cells; assay type: cell-based; conditions: primary multiple myeloma patient cells
Method: Samples were taken from two patients with newly diagnosed stage II IgG Kappa and stage III IgG Lambd restricted disease. This screening was performed by inducing apoptosis using doses and times determined from the MTT assay. 1-5×10^5 cells were collected by centrifugation. The cells were re-suspended in 500 μl of 1× Binding Buffer. 5 μl of Annexin V-FITC and 5 μl of propidium iodide were added. The cells were incubated at room temperature for 5 minutes in the dark.
Quantification by flow cytometry: Annexin V-FITC binding was analyzed by flow cytometry (Ex=488 nm; Em=530 nm) using FITC signal detector (usually FL1) and PI staining using a phycoerythrin emission signal detector (usually FL2). The results are shown below and in FIG. 1.

[6] = Metabolic stability in rat liver microsomes; assay type: in vitro ADME; conditions: 1 μM test item, 60 minutes, NADPH
Method: as §1

[7] = system: immortalized leukemic cells (B, T, and monocytic cell lines); assay: Assay 7: Screening for anticancer activity in various leukemic cell lines (MTT); assay type: cell-based; conditions: majority of B, 72-96 h, read-out: concentration for 50% growth inhibition
Method: Proliferation of immortalized leukemic cells representative of various indications was determined by a MTT (3-(4,5-Dimethylthiazol-2-yl)-2,5-diphenyl tetrazolium bromide) assay.

[8] = Metabolic stability in mouse liver microsomes; assay type: in vitro ADME; conditions: 1 μM test item, 60 minutes, NADPH
Method: as §1

[9] = system: PI3Kδ signalling in basophils; assay: Assay 4: Inhibition of PI3Kδ signalling in basophils from human whole blood (anti-FcεR1 induced CD63 expression); conditions: read-out: EC50, inhibition of anti-FcεR1 mediated CD63 expression
Method: PI3Kδ signalling in basophils manifested by an alteration of anti-FcεR1 induced CD63 expression is a useful pharmacodynamic marker determined using the Flow2CAST® kit (Buhlmann Laboratories, Switzerland). Briefly, it involves the following steps: • Mix the anti-coagulated blood sample by inverting the venipuncture tube several times • Prepare fresh and pyrogen-free 3.5 ml polypropylene or polystyrene tubes suitable for Flow Cytometry measurements • Add 49 μl of patient's whole blood to each tube. • Add 1 μl of 10% DMSO (background) or compound (10% DMSO) to the assigned tubes and mix gently. Incubate at room temperature for 15 min • Pipette 50 μl of the Stimulation buffer (background) or anti-FcεRI Ab to each tube • Add 100 μl of Stimulation Buffer to each tube • Mix gently. […] (using an incubator will take about 10 minutes longer incubation time due to less efficient heat transfer) • Add 2 ml pre-warmed (18-28° C.) Lysing Reagent to each tube, mix gently • Incubate for 5-10 minutes at 18-28° C. • Centrifuge the tubes for 5 minutes at 500×g • Decant the supernatant by using blotting paper • Resuspend the cell pellet with 300-800 μl of Wash Buffer • Vortex gently and acquire the data on the flow cytometer within the same day. • Percent CD63 positive cells within the gated basophil population are to be determined in different treatment groups and normalized to vehicle control.

[10] = system: pAKT in AML patient bone marrow leukemic cells; assay: Assay 6-II: pAKT analysis of AML patient bone marrow sample (pAKT ELISA); assay type: cell-based, human
Method: 6-II: pAKT analysis of AML patient bone marrow sample using pAKT ELISA kit: Mononuclear cells were extracted by the Ficoll method and seeded in plates. The cells were treated by different compounds for 48 hrs before they were analyzed by pAKT ELISA kit following the product protocol. Briefly, 1×10^6 cells were transferred into an ELISA kit well and lyzed with 10 μL 5× Cell Lysis Mix (phospho-AKT 1/2/3 (Ser473) InstantOne™ ELISA Kit, eBioscience, 85-86042). The cells were then incubated with 50 μl antibody cocktail for 1 hr at room temp. on a microplate shaker (˜300 rpm). After incubating with detection reagent, the result was measured using a SpectraMAX Plus microplate spectrophotometer set at 450 nm.

[11] = system: AML patient bone marrow leukemic cells; assay: Assay 6-III: Cell proliferation analysis of AML patient bone marrow sample (MTS); assay type: cell-based, human
Method: 6-III: Cell proliferation analysis of AML patient bone marrow sample using MTS assay: Mononuclear cells were extracted by the Ficoll method and seeded in plates. The cells were treated by different compounds for 48 hrs and 72 hrs before they were analyzed by MTS assay following product instruction. Briefly, 20 μL of the MTS solution was added into each well containing the 100 μL cell suspension, followed by incubation for 4 hours at 37° C., in 95% humidity with presence of 5% CO2. The absorbance of 490 nm (A490) was read using SpectraMAX Plus microplate spectrophotometer.

[12] = system: AML patient bone marrow leukemic cells; assay: Assay 6-I: Flow cytometry analysis of apoptotic induction in AML patient bone marrow leukemic cells; assay type: cell-based, human
Method: 6-I: Flow cytometry analysis of apoptotic induction in AML patient bone marrow leukemic cells upon compound treatment using Annexin V and 7-AAD staining: Mononuclear cells were extracted by the Ficoll method and seeded in plates. The cells were treated by different compounds for 48 hrs before they were analyzed by flow cytometry. After washing with PBS, 1×10^5 cells were stained by Annexin V-APC and 7-AAD. Annexin V positive staining measures total apoptotic cells, including early and late apoptotic cells. For Annexin V positive cells, 7-AAD negative signal reflects early apoptotic cells.

CC(C)Oc1ccc(-c2nn([C@@H](C)c3oc4ccc(F)cc4c(=O)c3-c3cccc(F)c3)c3ncnc(N)c23)cc1F [Compound B1, (S)-2-(1-(4-amino-3-(3-fluoro-4-isopropoxyphenyl)-1H-pyrazolo[3,4-d]pyrimidin-1-yl)ethyl)-6-fluoro-3-(3-fluorophenyl)-4H-chromen-4-one]
Caspase-3 activity [1]: dose-dependently induced Caspase-3 activity | apoptosis (caspase-3+/7AAD+) ([2]; 48 hours, 0.1 and 25.6 μM): significantly induced apoptosis | cytotoxicity (MTS) ([2]; 72 hours, 0.1 and 25.6 μM): significantly induced | Akt phosphorylation (S473) induced by anti-surface immunoglobulin ([2]; one hour compound, anti-IgM or anti-IgD, flow cytometry MFI): significantly abrogated this effect and returned Akt phosphorylation to baseline | Metabolic stability in liver microsomes, Human (percent parent compound remaining) [3]: 74.9% | inhibition at 1 µM [4]: 50 to 90% | inhibition at 3 µM ([5]; Homo sapiens, Multiple myeloma cell, 3.0 μM, read-out: inhibition of PAKT): > 75% | cell viability [5]: Dose dependent reduction in cell viability. | Metabolic stability in liver microsomes, Rat (percent parent compound remaining) [6]: 23.1% | pIC50 [7]: 5.12 to 6.30 | Metabolic stability in liver microsomes, Mouse (percent parent compound remaining) [8]: 36.6% | pEC50 [9]: ≥ 7.00 | AKT phosphorylation (dose dependence) [10]: dose dependent reduction | inhibition at 0.3 µM ([10]; Homo sapiens, Bone marrow cell, 0.3 μM, 48 hrs): > 50% | cell viability / proliferation [11]: dose dependent reduction in proliferation; also recorded: Dose dependent reduction in cell viability | number of apoptotic cells [12]: concomitant increase in the number of apoptotic cells
